Where two headings read alike, the source gives them in different places. Primed or numbered codes have the meaning given here. Ends that are not written are not given here. Biotin′ = not defined here
Columns and labels:
[1] = test system: murine kidney homogenate; experiment: Ligand sensor device selectivity assay, murine kidney homogenate; type: binding, mouse
Procedure: (§1) Identification of a peptide of interest. Mice were euthanized with carbon dioxide gas and cats were euthanized with an overdose of pentobarbital administered intravenously (the use of animals was approved by the Auburn University Animal Care and Use Committee). After death, animals were perfused with ice-cold Phosphate Buffered Saline (PBS). Samples of mouse and cat skeletal muscle, mouse kidney, liver and brain were harvested. Tissue aliquots (200 mg) were homogenized in 4 ml PBS using a manual homogenizer. Immediately after homogenization samples were microcentrifuged for 10 min at 3,000 rpm, and the supernatants containing tissue vesicles were separated from the pellets. […] Vesicle concentration and integrity were examined by dark-field microscopy (Vodyanoy et al. (1994) Langmuir 10: 1354–1357). Dilutions of tissue samples were prepared in PBS as follows: 1:5, 1:25, 1:125, and 1:625. To perform the blocking experiment, free ASSLNIA peptide (1 mg/ml) synthesized by Research Genetics, Inc. (Huntsville, Ala., USA) was added to the murine skeletal muscle tissue homogenate (50 mg/ml) and incubated at room temperature for 1 hour with agitation. Protein concentration in tissue samples was determined using Bio-Rad® Protein Assay Kit (Bio-Rad Laboratories, Hercules, Calif., USA).
(§2) Coupling the peptide of interest to the sensor. The sensor, prepared as described above by the addition of a Langmuir-Blodgett film of biotinylated lipid, was then coupled to the peptide of interest by molecular assembly with streptavidin. Streptavidin was diluted to a final concentration of 0.01 mg/ml in the subphase solution and exposed to the LB film for 2 hours; the film was then rinsed with distilled water and dried for 2 min in ambient air. […] If necessary, this preparation step could be followed by a blocking step with a biotin solution. In this manner, the peptide of interest was coupled with the phospholipid via molecular assembly with streptavidin (see FIG. 1), thereby coupling the peptide of interest to the sensor to create the ligand sensor device (LSD). Each LSD was placed in an individual Petri dish and stored no longer than 24 hours at 4° C. until affinity assays were performed.
Quantifying the signal output from the ligand sensor device (LSD). Measurements were carried out using a PM-740 Maxtek plating monitor with a frequency resolution of 0.5 Hz at 5 MHz. The voltage output from the Maxtek device is directly related to the resonance frequency of the quartz crystal sensor. Changes in the resonance frequency of the quartz crystal sensor were used to monitor the binding of homogenate vesicles to the sensor surface.
To evaluate the affinity of a ligand, the LSD was positioned in the probe arm of the instrument just before delivery of samples. Immediately after recording was started, 1000 μl phosphate buffered saline (PBS) was delivered with a pipette to the dry sensor surface and voltage was recorded for 4–8 minutes. The PBS was then removed carefully with a plastic pipette tip and a new recording was initiated. Tissue homogenates of different dilutions were added sequentially to the sensor and the same measuring procedure was followed after each addition. Each experiment was replicated 2–4 times, and the temperature of all samples was 25° C. Voltage output of the LSD was recorded and records were analyzed offline.
Binding selectivity of the Ligand Sensor Device.

[2] = target: murine skeletal muscle homogenates; experiment: Ligand sensor device (acoustic wave sensor) binding assay, murine muscle homogenate; parameters: species or system mouse; conditions: for Kd: read-out: apparent dissociation constant Kd
Procedure: as §1, with “USA). […]” for “USA).”
(§3) Preparation of the sensor. AT-cut planar quartz crystal sensors with a 5 MHz nominal oscillating frequency were purchased from Maxtek, Inc. Circular gold electrodes were deposited on both sides of the crystal sensor for the electrical connection to the oscillatory circuit. The sensor was prepared to be coupled to the peptide by the addition of a Langmuir-Blodgett film of biotinylated lipid. Lipid monolayer depositions were carried out using a Langmuir-Blodgett (LB) film balance KSV 2200 LB (KSV-Chemicals, Finland). This fully computerized system includes a Wilhelmy-type surface balance (range 0–100 mN/m; sensitivity 0.05 mN/m), a Teflon trough (45×15 cm^2), a variable speed motor-driven Teflon barrier (0–200 mm/min), and a laminar flow hood. The trough was mounted on a 200 kg marble table. Vibration control was provided by interposing rubber shock absorbers and by mounting the laminar flow hood on a separate bench. Surface pressure was monitored by use of a sandblasted platinum plate of 4-cm perimeter. The temperature of the aqueous subphase (20° C. ±0.1° C.) was controlled by water circulation through a quartz tube coil on the bottom of the trough. The temperature of the aqueous subphase was measured by a thermistor located just below the air/liquid interface.
Monolayers were transferred onto the gold surface of an acoustic wave sensor using the Langmuir-Blodgett technique. Lipid solutions were spread on the aqueous subphase as hexane solutions (1 mg/ml) containing 2% ethanol (Ito et al. (1989) Thin Solid Films 180: 1–13). The lipid solutions contained phospholipid (N (biotinoyl)-1,2-dihexadecanoyl-SN-glycero-3-phosphoethanolamine). The aqueous subphase was a solution containing 55 mM KCl, 4 mM NaCl, 0.1 mM CaCl2, 1 mM MgCl2 and 2 mM 3-(N-morpholino)-propanesulfonic acid (MOPS) made with deionized double distilled water (pH 7.4). After spreading, the monolayer was allowed to equilibrate and stabilize for 10 min at 19° C.

[3] = test system: murine brain homogenate; experiment: Ligand sensor device selectivity assay, murine brain homogenate; type: binding, mouse
Procedure: as §1, §2
(§4) Quantifying the signal output from the ligand sensor device (LSD). Measurements were carried out using a PM-740 Maxtek plating monitor with a frequency resolution of 0.5 Hz at 5 MHz. […]
(§5) To evaluate the affinity of a ligand, the LSD was positioned in the probe arm of the instrument just before delivery of samples. Immediately after recording was started, 1000 μl phosphate buffered saline (PBS) was delivered with a pipette to the dry sensor surface and voltage was recorded for 4–8 minutes. […] Voltage output of the LSD was recorded and records were analyzed offline. […]

[4] = test system: feline skeletal muscle homogenate; experiment: Ligand sensor device binding assay, feline muscle homogenate; parameters: species or system cat
Procedure: as §1
A 7-mer phage display peptide library (New England Biolabs, Inc., Beverly, Mass., USA) was screened as described in Samoylova and Smith (1999) Muscle & Nerve 22: 460–466.
as §3, with “interface. […]” for “interface.”

[5] = test system: murine liver homogenate; experiment: Ligand sensor device selectivity assay, murine liver homogenate; type: binding, mouse
Procedure: as §1, §2, §4, §5

[6] = Table 1, blocked muscle: homogenate (50 mg/ml) incubated with free peptide (1 mg/ml) 1 hour at room temperature
[7] = Table 2, murine muscle homogenate
[8] = Table 2, feline muscle homogenate

Question: What does the source list for “7-mer peptide selected in vivo for murine myofibers by phage display; coupled to the sensor as ASSLNIAGGGSK-Biotin (SEQ ID NO:3) (ASSLNIAGGGSK-{Biotin′}; also: coupled to the sensor)”?
Answer: kidney homogenate needed to induce same response as 0.01 mg/ml muscle homogenate [1]: more than 100 mg/ml; sensitivity (S), slope of dose response ([1]; Table 3, murine kidney): 41.8 ± 7.0 V/decade; selective preference for ligand(s) in muscle over kidney homogenates, factor ([1]; at 0.01 mg/ml muscle homogenate): more than 10,000; sensor response ([1]; murine kidney preparation): insignificant responses; Selectivity coefficient, K ([1]; murine kidney, K = Stissue/Smuscle): (3.1 ± 1.0) × 10^−1 relative units; apparent dissociation constant Kd [2, 6]: 320 ± 50 µg/mL; apparent maximal surface concentration of protein Mmax [2, 6]: 34.4 ± 3.0 ng/cm^2; apparent dissociation constant Kd ([2]; Table 1, murine muscle homogenate, calculated from Hill plots): 280 µg/mL; apparent maximal surface concentration of protein Mmax ([2]; Table 1, murine muscle homogenate, estimated from increase of sensor voltage): 54.0 ± 4.0 ng/cm^2; Mmax [2, 7]: 50.5 ± 3.0 ng/cm^2; apparent dissociation constant Kd [2, 7]: 320 ± 50 µg/mL; Hill coefficient ([2]; Table 2, murine muscle homogenate, equation 2): 0.92 ± 0.04; sensitivity (S), slope of dose response ([2]; Table 3, murine muscle): 134 ± 20.0 V/decade; apparent dissociation constant, level ([2]; assuming only a fraction of molecules on vesicle surface bind the peptide): subnanomolar level; Kd ([2]; corrected for target molecules being ~0.5% of vesicle mass): 5 to 10 nM; Selectivity coefficient, K ([2]; murine muscle (reference), K = Stissue/Smuscle): 1.0 relative units; Activity ratio, R ([2]; murine muscle (reference), protein concentration 0.01 mg/ml): 1.0 relative units; time to approach steady-state signal output τ2 ([2]; murine muscle homogenate, each concentration, FIG. 2): 70 ± 20 s; initial delay in signal output response τ1 ([2]; murine muscle homogenate, independent of concentration, FIG. 2): 8 ± 1 s; sensor response ([2]; murine muscle homogenates): strong response; protein concentration at which signal was saturated ([2]; murine muscle homogenates, FIG. 3): about 5.0 mg/ml; sensor signal after blocking ([2]; preincubation of muscle homogenates with free peptide): significantly reduced signal; Kd ([2]; speculating target molecule of about 75–150 kD): 1000 to 2000 nM; sensitivity (S), slope of dose response ([3]; Table 3, murine brain): 62.5 ± 16 V/decade; sensor response ([3]; murine brain preparation): insignificant responses; Selectivity coefficient, K ([3]; murine brain, K = Stissue/Smuscle): (4.6 ± 1.4) × 10^−1 relative units; Activity ratio, R ([3]; murine brain, R = ΔCmuscle/ΔCtissue at protein concentration 0.01 mg/ml): (3.4 ± 1.1) × 10^−3 relative units; Mmax [4, 8]: 32.8 ± 2.0 ng/cm^2; apparent dissociation constant Kd [4, 8]: 370 ± 50 µg/mL; Hill coefficient ([4]; Table 2, feline muscle homogenate, equation 2): 0.93 ± 0.04; sensor response ([4]; feline muscle homogenates, compared to murine muscle): appreciable, but lower responses; sensitivity (S), slope of dose response ([5]; Table 3, murine liver): 67.3 ± 6.0 V/decade; sensor response ([5]; murine liver preparation): insignificant responses; Selectivity coefficient, K ([5]; murine liver, K = Stissue/Smuscle): (5.0 ± 1.5) × 10^−1 relative units; Activity ratio, R ([5]; murine liver, R = ΔCmuscle/ΔCtissue at protein concentration 0.01 mg/ml): (1.1 ± 0.4) × 10^−3 relative units
